A short description of data set [1]: Pharmacokinetics of bicifadine SR tablets in acute dental pain study. Format: in vivo, human. The following applies: 90 patients. The protocol: (§1) Healthy adult male and female human subjects who underwent surgical extraction of two or more impacted third molars were enrolled in the study. Following cessation of the local anesthetic effect and onset of pain of at least 40 mm intensity on the 100 mm VAS, patients were randomized to into 1 of the 5 treatment arms (n˜108 per arm) and remained in the clinic for the subsequent 12 hours of the study. The study subjects were randomized to receive either a single dose of: 200 mg, 400 mg or 600 mg bicifadine SR tablets, Tramadol 100 mg, or Placebo. Analgesia ratings were obtained over a 12 h post-dosing period. Rescue medication (acetaminophen) was available, but no analgesia measures were taken after the use of rescue medication by a given patient. A subset of 150 patients provided blood samples at 0.5 hr and hourly intervals following dosing with study medication for the purpose of determining bicifadine levels (n=90).
Plasma time course profiles were determined in a subset of 30 subjects (15 male/15 female) from each treatment group.

For data set [2], the system named is post-operative dental pain. As to the kind of experiment: Analgesic efficacy of bicifadine SR tablets in post-operative dental pain study. The data set is classed as in vivo, human. As to the method: These conclusions are further substantiated by the use of rescue medication by subjects in the Stem et al. acute dental pain studies. Table 5 below summarizes information on the use of rescue medication for patients who took rescue medication among the various treatment groups in the clinical trial reported by Stern et al. (id.) A nonparametric analysis (Median Test) was conducted to evaluate the median latency to rescue medication.
Survival analysis (Kaplan-Meier method, 95% confidence) was performed to compare the treatment groups with regard to time-to-rescue medication. […] The analysis yielded a statistically significant difference among the treatment groups (Log-Rank test, Chi-square=26.9, df=4, P=0.0001).
as §1
The main efficacy endpoints utilized in the overall study (n˜540) were the individual assessment of Pain Severity and Pain Relief scores at a given time point; the derived scores (PID, PRID, SPID, SPRID, TOTPAR), and the global improvement. The last observation carried forward (LOCF) approach was used to estimate change over time for those patients who used rescue medication. For the full study efficacy evaluations, one-way analysis of covariance with baseline pain severity as a covariate was applied. The global tests which included all treatment arms were followed by post-hoc comparisons of the individual treatment arms vs. placebo.
The relationship between mean pain relief ratings (PRR) and mean plasma bicifadine levels was determined at three exemplary plasma level ranges: between 0-500 ng/ml, 500-1000 ng/ml, and >1000 ng/ml, respectively. A clear positive relationship was observed across 3 ranges of bicifadine levels. In particular, bicifadine plasma concentrations in the >1000 ng/ml range were associated with a PR score approximately 3 times as high as plasma concentrations in the 0-500 ng/ml range (p<0.001, Hierarchical Linear Model analysis).
The probability of treatment response as a function of bicifadine blood concentration levels was also determined. Association between the probability of treatment response and bicifadine blood concentration levels was investigated with the widely known Generalized Estimating Equation (GEE) approach. For the purpose of the GEE analyses described here, bicifadine blood concentration was treated as a continuous independent (predictor) variable. Treatment (analgesic) response served as a dichotomous (yes, no) dependent variable in the GEE model. In particular, treatment response for each individual patient for each of the time points was defined as a Pain Relief Rating of 3 or more (range 0-4).

Data set [3] has as its system chronic low back pain (CLBP). The data set can be described thus: Chronic low back pain (CLBP) study, bi-daily dosing. Format: in vivo, human. As to the method: The present study evaluated the therapeutic efficacy of a reduced dosing regimen employing bicifadine in a bi-daily (BID) dosing protocol to treat chronic low back pain (CLBP). More than 800 study subjects were recruited in this study, and a subset of these subjects was administered 400 mg of a sustained release oral dosage form (formula M; example 15) of bicifadine BID to evaluate the long-term analgesic efficacy of bicifadine for treating CLBP. […] The following outcome measures were assessed in the study:
Inclusion criteria for study subjects, as selected for other studies herein, included the following: Subjects were at least 18 years of age. If subject was female and of childbearing potential, the subject had to have a negative serum pregnancy test during the screening period. Subjects were required to have […] during the screening period.
Other exclusionary criteria in this study included: Low back pain due to acute fracture, infection, severe osteoporosis, malignancy, marked scoliosis, or severe congenital malformation such as spina bifida; Receipt of an epidural injection of corticosteroid in the lower back within 1 month prior to the baseline visit; Use of any antidepressant for pain or sleep (including SSRIs or SNRIs), anti-epileptic, or muscle relaxant, or receipt of transcutaneous electrical nerve stimulation, chiropractic adjustment, or acupuncture within 3 weeks prior to the baseline visit; Use of any antidepressant (including SSRIs or SNRIs) for depression within 3 months prior to the baseline visit; Use of any opioid analgesic or benzodiazepine (or other sedative-hypnotic) within 2 weeks prior to the baseline visit; Use of any NSAID (except aspirin<81 mg per day or <325 mg every other day for cardiac prophylaxis and except ibuprofen) or any non-opioid analgesic (except acetaminophen) within 1 week, or acetaminophen or ibuprofen within 60 hours, prior to the baseline visit; Active malignancy of any type or history of a malignancy within 5 years prior to the first dose of study medication (patients with treated localized basal or squamous cell carcinoma of the skin within 5 years are permitted); Active GI disease (including any GI surgery that, in the Investigator's opinion, would interfere with the absorption of the study medication), or a chronic or acute renal or hepatic disorder; Mental instability, known substance abuse, history of clinically significant depression or alcoholism, or incapacity of being compliant with the requirements of the study; Any clinically significant cardiovascular, renal, endocrine, hepatic, immunologic, respiratory, neurologic, gastrointestinal, psychiatric, or hematologic disease, or any underlying serious medical condition that would preclude patient's participation in the study; and, other standard, relevant exclusion criteria.
Patients who qualified for enrollment into the study completed the PSR test, Roland-Morris Disability Questionnaire, Short Form McGill Pain Questionnaire (SF-MPQ) and the SF-36 quality of life survey at the baseline visit and at various time points throughout the study.
Study subjects were randomized on a 25:6 basis to receive either bicifadine 400 mg BID or SOC treatment, respectively. SOC treatment was provided as any appropriate pharmacological analgesic treatment selected by the investigator based on the subjects' baseline and ongoing presentation. Subjects were permitted to reduce the dose for tolerability reasons, first to bicifadine 300 mg BID, and then, if necessary, to bicifadine 200 mg BID.
Summary statistics, including observed means and standard deviations along with mean change from baseline were summarized by visit for each outcome measure. Incidence of discontinuation due to lack of efficacy and its 95% confidence interval were likewise calculated. The median and its 95% confidence interval and a Kaplan-Meier plot were provided for Time to Discontinuation due to lack of efficacy and other reasons. […]

The test system of another data set is neuropathic pain. As to the kind of experiment: Spinal nerve ligation (Chung) model. The following applies: in vivo.
In another data set the test system is acute pain. The data set can be described thus: Acute pain studies (acute dental pain and bunionectomy pain). The data set is classed as in vivo, human. The following applies: unit doses of about 200 mg, 400 mg or 600 mg.
Another data set relates to acute inflammatory pain. Particulars: animal model of acute inflammatory pain; cited from earlier work.
Data set [4] concerns acute, nociceptive pain following dental surgery. Particulars: cited from earlier work.
The mark [5] stands for this setting: patients with low back pain and radiating pain.

Entries after “also recorded” stand apart in the source; their conditions may differ. Structures can show the parent of a compound that is named as a salt. Bounds are passed on as bounds.

`Cc1ccc(C23CNCC2C3)cc1` (racemic) [Bicifadine HCl, (±)-1-(4-methylphenyl)-3-azabicyclo[3.1.0]hexane hydrochloride]: in data set [1], the “relationship between bicifadine dose and AUC” value is given as “clear dose proportional relationship”. The “SPRID-6 and other derived analgesia scores versus placebo” value in data set [2] (200 mg single dose) was “better than placebo on some measures”. For the same compound, the “SPRID-6 and other derived analgesia scores versus placebo” value in data set [2] (400 mg single dose) is on record as “statistically superior to placebo”. In addition, the “SPRID-6 and other derived analgesia scores versus placebo” value in data set [2] (600 mg single dose) is on record as “statistically superior to placebo”. Moreover, in data set [2] (acute dental pain), the “drug levels associated with significant analgesic efficacy” value was 500 to 1000 ng/mL, the minimally effective dose is reported as 200 mg, the “plasma bicifadine levels associated with the greatest pain relief” value was over 1000 ng/mL and the “plasma drug levels not associated with significant analgesic effects” value was at most 500 ng/mL. Also, in data set [2] (for an increase of 500 ng/ml in bicifadine blood levels, GEE, p=0.006), the “Odds Ratio of Response (Pain Relief Rating of 3 or more)” value is 1.59. In addition, the “PR score at plasma concentrations >1000 ng/ml relative to 0-500 ng/ml range” value in data set [2] (p<0.001, Hierarchical Linear Model) is “approximately 3 times”. For the same compound, the “therapeutic efficacy from pain relief data (VAS)” value in data set [3] (BID dosing, 4.5 month period, versus SOC) is “comparable to that of standard of care (SOC) treatment”. Moreover, the improved functional/activity results in data set [3] (BID dosing, versus SOC) was “comparable to those observed among SOC-treated subjects”. The “VAS pain scores compared to placebo” value in data set [3] (baseline RDQ score greater than 17) is recorded as “significantly reduced”. The “subjects with at least a 50% reduction in VAS scores, relative to placebo” value in data set [3] (baseline RDQ score greater than 17, hydrochloride) is given as “at least three times as many; also recorded: roughly three times the percentage”. In addition, the “percentage of subjects with 50% or greater reduction in RDQ scores, relative to placebo (less than 15%)” value in data set [3] (baseline RDQ>17, 400-800 mg/day) is reported as “roughly twice this percentage”. The “disability scores on the RDQ versus placebo” value in data set [3] (baseline RDQ>17, 400-800 mg/day, hydrochloride) was “significant activity for reversing disabilities and enhancing functional/activity performance; also recorded: significantly decreased”. Also, in data set [3] (setting [5]), the “improvement in VAS pain score compared to placebo” value worked out at 11 mm and the “responsiveness to treatment versus patients with only localized back pain” value is “two times more responsive”. Further, in the data set with neuropathic pain, the “efficacy in the spinal nerve ligation (Chung) model” value is given as “effective”. For the same compound, in the data set with acute pain, the “period of analgesic efficacy for effectively treating acute pain” value is recorded as “up to 6 hours”. In the data set on acute inflammatory pain, the “activity in the Randall-Selitto test” value was “potent and active”. For the same compound, the “efficacy relative to codeine and tramadol” value in data set [4] is “as effective as codeine and tramadol”.
For `COc1cccc(C2(O)CCCCC2CN(C)C)c1` (centres unmarked) [tramadol, reference compound], the “use of rescue medication versus placebo (time-to-rescue, Log-Rank)” value in data set [2] (100 mg, P=0.0001) was “significantly less likely to use rescue medication”.

The record behind these values is patent US9393204B2, “Methods and compositions employing bicifadine for treating disability or functional impairment associated with acute pain, chronic pain, or neuropathic disorders” (EBI Life Sciences, Inc., priority 2002, dated 2016).
